Assay results published in the NIST ThermoML archive (doi:10.1021/je100803e).

What was measured:
[1] = for mass density / viscosity: 298.15 K, 101.3 kPa; for mass density / viscosity / vapor or sublimation pressure: Liquid; for viscosity: Capillary tube (Ostwald / Ubbelohde) method; for vapor or sublimation pressure: Ebulliometric method (Recirculating still); for Normal melting temperature: Crystal
[2] = refractive index (Na D-line) (dimensionless); conditions: 298.15 K; 101.33 kPa; Liquid; Standard Abbe refractometry
[3] = xn = mol fraction of the nth substance listed; conditions: 298.15 K, 101 kPa, Liquid; for viscosity: Capillary tube (Ostwald / Ubbelohde) method
[4] = refractive index (Na D-line) (dimensionless); xn = mol fraction of the nth substance listed; conditions: 298.15 K, 101 kPa, Liquid, Standard Abbe refractometry

CC(O)CO (centres undefined) [1,2-propanediol]
Conditions	mass density [kg/m3]	refractive index	viscosity [mPa·s]
[1]	1031.6	–	44.45
[2]	–	1.4313	–

[1]
Conditions	vapor or sublimation pressure [kPa]
378 K	4
398.24 K	10
402.54 K	12
415.13 K	20
425.72 K	30
433.59 K	40
439.9 K	50
445.2 K	60
449.79 K	70
453.84 K	80
457.48 K	90
460.79 K	100

CC(O)CO (centres undefined) [1,2-propanediol] + CC1COC(=O)O1
x1 = 1
Conditions	mass density [kg/m3]	refractive index	viscosity [mPa·s]
[3]	1031.6	–	44.45
[4]	–	1.4313	–

CC1COC(=O)O1 (centres undefined) [4-methyl-1,3-dioxolan-2-one]
Conditions	mass density [kg/m3]	refractive index	viscosity [mPa·s]
[1]	1199.4	–	2.39
[2]	–	1.4198	–

[1]
Conditions	vapor or sublimation pressure [kPa]
407.97 K	4
432.45 K	10
437.77 K	12
453.6 K	20
467.23 K	30
477.53 K	40
485.91 K	50

CC1COC(=O)O1 (centres undefined) [4-methyl-1,3-dioxolan-2-one] + CC(O)CO
Conditions	mass density, [3] [kg/m3]	refractive index, [4]	viscosity, [3] [mPa·s]
x2 = 0	1199.4	1.4198	2.39
x2 = 0.01	–	–	2.534
x2 = 0.05	1190.9	1.4199	2.436
x2 = 0.1	1182.4	1.4199	–
x2 = 0.2	1166.4	1.4207	2.921
x2 = 0.3	1150.2	1.4213	3.55
x2 = 0.4	1134.2	1.4223	4.758
x2 = 0.5	1117.9	1.4235	6.071
x2 = 0.6	1101.6	1.4249	8.461
x2 = 0.7	1085.1	1.4264	11.82
x2 = 0.8	1068	1.4278	17.38
x2 = 0.9	1050.6	1.4294	27.54
x2 = 0.9499	1041.4	1.4305	35.66

CCOC(=O)CCC(=O)OCC [diethyl butanedioate]
Conditions	Normal melting temperature [°C]	mass density [kg/m3]	refractive index	viscosity [mPa·s]
[1]	-21.52	1035.5	–	2.393
[2]	–	–	1.4179	–

[1]
Conditions	vapor or sublimation pressure [kPa]
392.46 K	4
417.39 K	10
423.15 K	12
437.53 K	20
453.15 K	30
462.1 K	40
467.78 K	50

CCOC(=O)CCC(=O)OCC [diethyl butanedioate] + O=C1CCCO1
Conditions	mass density, [3] [kg/m3]	refractive index, [4]	viscosity, [3] [mPa·s]
x2 = 0	1035.5	1.4179	2.393
x2 = 0.05	1037.5	1.4185	2.381
x2 = 0.1	1040	1.419	2.375
x2 = 0.2	1045.3	1.4201	2.356
x2 = 0.2999	1051.1	1.4213	2.318
x2 = 0.4	1057.8	1.4227	2.284
x2 = 0.5	1065.3	1.4242	2.226
x2 = 0.6	1073.8	1.4259	2.153
x2 = 0.7	1083.5	1.4278	2.073
x2 = 0.8	1094.9	1.4299	1.952
x2 = 0.9	1108.4	1.4323	1.817
x2 = 0.95	1116.2	1.4336	1.745

O [water]
Conditions	Normal melting temperature [°C]
[1]	-0.10

O [water] + O=C1CCCO1
x1 = 1
Conditions	refractive index	viscosity [mPa·s]
[3]	–	0.8756
[4]	1.3325	–

O=C1CCCO1 [γ-butyrolactone]
Conditions	Normal melting temperature [°C]	mass density [kg/m3]	refractive index	viscosity [mPa·s]
[1]	-43.72	1124.5	–	1.654
[2]	–	–	1.435	–

[1]
Conditions	vapor or sublimation pressure [kPa]
376.99 K	4
400.58 K	10
405.68 K	12
420.76 K	20
433.66 K	30
443.36 K	40
451.22 K	50
457.88 K	60
463.68 K	70
468.84 K	80
473.49 K	90
477.54 K	100

O=C1CCCO1 [γ-butyrolactone] + CCOC(=O)CCC(=O)OCC
x1 = 1
Conditions	mass density [kg/m3]	refractive index	viscosity [mPa·s]
[3]	1124.5	–	1.654
[4]	–	1.435	–

O=C1CCCO1 [γ-butyrolactone] + O
Conditions	mass density, [3] [kg/m3]	refractive index, [4]	viscosity, [3] [mPa·s]
x2 = 0	1124.5	1.435	1.654
x2 = 0.05	1123	1.4337	1.621
x2 = 0.1002	1121.5	1.4325	1.6
x2 = 0.2	1118.2	1.4295	1.606
x2 = 0.3	1115.1	1.4265	1.645
x2 = 0.4	1110.9	1.4226	1.706
x2 = 0.5	1105.9	1.4175	1.766
x2 = 0.6	1098.8	1.4116	1.8
x2 = 0.7	1088.6	1.4017	1.787
x2 = 0.8	1073.2	1.3888	1.668
x2 = 0.9	1047.1	1.3684	1.385
x2 = 0.95	1026.6	1.3531	1.16
